Measured values reported in patent US6264994A, “Compositions for treating alzheimer's disease and other amyloidoses” (priority 1998, dated 2001).
Where a name gives a salt, the structure may show the parent alone.

How the values were obtained:
Alzheimer's Aβ (1-40) = target: T1, Alzheimer's Aβ (1-40) (Homo sapiens, UniProt P05067); assay: Thioflavin T fluorometry assay of Aβ (1-40) amyloid fibril formation over 1 week; assay type: biochemical; conditions: 1 hour to 1 week, 25 μM Aβ (1-40)
T1 construct: aggregates to fibrils, Thioflavin T fluorometry
T1 sequence (P05067 672-711): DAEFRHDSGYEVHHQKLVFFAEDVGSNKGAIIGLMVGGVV
Description: A previously described method of measuring amyloid fibril formation utilizing Thioflavin T fluorometry (H Naiki et al, Lab. Invest. 65:104-110, 1991; H Levine III, Protein Sci. 2:404-410, 1993; H Levine III, Amyloid: Int. J. Exp. Clin. Invest. 2:1-6, 1995; H Naiki and K. Nakakuki, Lab. Invest. 74:374-383,1996) was employed initially to identify potential therapeutic compounds capable of inhibiting Alzheimer's Aβ amyloid fibril formation. Using this sensitive assay, any decreases or increases in fluorescence was previously shown to correlate with a decrease or increase in the amount of amyloid fibrils (H Naiki et al, Lab. Invest. 65:104-110, 1991; H Levine III, Protein Sci. 2:404-410, 1993; H Levine III, Amyloid: Int. J. Exp. Clin. Invest. 2:1-6, 1995; H Naiki and K. Nakakuki, Lab. Invest. 74:374-383, 1996), allowing one to determine the identification and extent of potential inhibitors and/or enhancers of amyloid fibril formation.
In one study, the effects of various compounds on Alzheimer's Aβ (1-40) fibril formation was assessed by Thioflavin T fluorometry. Thioflavin T is known to bind to fibrillar amyloid proteins, and an increase in fluorescence correlates with an increase in amyloid fibril formation, whereas a decrease in fluorescence correlates with a decrease in amyloid fibril formation. The Alzheimer's Aβ protein (1-40) when incubated at 37° C. tends to spontaneously form amyloid fibrils which increase in quantity over time. […]
To assess the effects of each compound on Aβ (1-40) fibril formation, 50 μl aliquots were taken from each tube for analysis at 1 hr, 1 day, 3 days, and 1 week. […] Fluorescence emission at 482 nm was measured on a Turner instrument-model 450 fluorometer at an excitation wavelength of 450 nm. For each determination,the fluorometer was calibrated by zeroing in the presence of the Thioflavin T reagent alone, and by setting the 50 ng/ml riboflavin (Sigma Chemical Co., St. Louis, Mo.) in the Thioflavin T reagent to 1800 fluorescence units. […]

Aβ (1-40) = assay: Solid phase binding assay of Aβ--Aβ interactions (amyloid fibril growth); conditions: FIG. 3; 1.25 mM of test compounds
Description: In Alzheimer's disease and other amyloidoses, amyloid fibril growth is believed to involve amyloid protein self-interactions (ie. Aβ--Aβ interactions). Any potential effective therapeutic agent for amyloid deposition, accumulation and/or persistence should also be capable of causing an inhibition of amyloid protein self-interactions. This is important for preventing any new amyloid fibril formation when treating Azheimer's disease patients at early stages of the disease. ELISA methodologies (i.e. solid phase binding assays) were therefore used to identify compounds which were capable of inhibiting Aβ--Aβ interactions (i.e. Alzheimer's amyloid fibril growth).
Aβ (1-40) was first labelled with biotin according to the following protocol. 1 mg of Aβ (1-40) (Bachem Inc., Torrance, Calif., USA; Lot #WL934) was dissolved in 200 μl of PBS (pH 8.0) and incubated for 1 week at 37° C. […] The amount of biotin incorporated was then determined using the HABA (2-(4'-hydroxyazo-benzene)benzoic acid) method (according to the manufacturer's protocol; Pierce).
2 μg of unlabelled Aβ in 40 μl of Tris-buffered saline containing 100 mM Tris-HCl, 50 mM NaCl, 3 mM NaN3, pH 7.0 (TBS) was allowed to bind overnight at 4° C. to microtiter wells (Nunc plates, Maxisorb). […] The reaction was stopped with 50 μl of 4N H2 SO4 and read on a Model 450 microplate reader (Biorad, Hercules, Calif., USA) at 490 nm. […]

[1] = test system: Alzheimer's disease patients; conditions: literature; cited from earlier work
[2] = Example 1, FIG. 1, 1.25 mM test compound (PTI-00700 at 1:227 dilution)

| effect on Aβ (1-40) amyloid fibril formation (Alzheimer's Aβ (1-40); [2]) | effect on amyloid fibril growth / Aβ--Aβ interactions (Aβ (1-40)) | SMILES | cognitive improvement in Alzheimer's disease patients [1] | other results |
| --- | --- | --- | --- | --- |
|  |  | N[C@H]1C(O)O[C@H](CO)[C@@H](O)[C@@H]1O (some centres unmarked) [PTI-00712, glucosamine] |  | effect on Aβ (1-40) amyloid fibril formation (Alzheimer's Aβ (1-40); Example 2, FIG. 2, 1.25 mM test compound): no inhibitory effect |
| did not significantly inhibit | no inhibitory effects | N[C@H]1C(O)O[C@H](CO)[C@@H](O)[C@@H]1O (some centres unmarked) [PTI-00800, glucosamine] |  |  |
| did not significantly inhibit | no inhibitory effects | N[C@H]1C(O)O[C@H](CO)[C@@H](O)[C@@H]1O (some centres unmarked) [PTI-00900, glucosamine] |  |  |
|  |  | Nc1c2c(nc3ccccc13)CCCC2 [Tacrine hydrochloride] | limited success | side effects [1]: liver toxicity |
|  |  | COc1cc2c(cc1OC)C(=O)C(CC1CCN(Cc3ccccc3)CC1)C2 (centres unmarked) [donepezil] | slight cognitive improvement |  |
